In BindingDB's records for PubMed 6123593 (Eli Lilly, 1982):

Columns and labels:
[1] = biological target: T1, Alpha-2C adrenergic receptor (Rattus norvegicus, UniProt P22086)
T1 sequence (P22086 whole entry): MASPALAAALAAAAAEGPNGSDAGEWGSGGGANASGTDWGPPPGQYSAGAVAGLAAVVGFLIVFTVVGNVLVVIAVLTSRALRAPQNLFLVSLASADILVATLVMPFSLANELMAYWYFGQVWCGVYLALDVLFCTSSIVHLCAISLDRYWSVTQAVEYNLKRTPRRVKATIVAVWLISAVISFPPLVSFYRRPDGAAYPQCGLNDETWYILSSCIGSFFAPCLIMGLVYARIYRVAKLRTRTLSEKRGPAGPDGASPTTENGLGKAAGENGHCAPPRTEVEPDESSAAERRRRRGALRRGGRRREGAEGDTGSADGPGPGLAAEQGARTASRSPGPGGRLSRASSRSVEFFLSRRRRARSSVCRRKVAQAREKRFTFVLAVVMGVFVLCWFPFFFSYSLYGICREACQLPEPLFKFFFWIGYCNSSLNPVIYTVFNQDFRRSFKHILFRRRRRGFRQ

[2] = biological target: T2, Muscarinic acetylcholine receptor M2 (Rattus norvegicus, UniProt P10980)
T2 sequence (P10980 whole entry): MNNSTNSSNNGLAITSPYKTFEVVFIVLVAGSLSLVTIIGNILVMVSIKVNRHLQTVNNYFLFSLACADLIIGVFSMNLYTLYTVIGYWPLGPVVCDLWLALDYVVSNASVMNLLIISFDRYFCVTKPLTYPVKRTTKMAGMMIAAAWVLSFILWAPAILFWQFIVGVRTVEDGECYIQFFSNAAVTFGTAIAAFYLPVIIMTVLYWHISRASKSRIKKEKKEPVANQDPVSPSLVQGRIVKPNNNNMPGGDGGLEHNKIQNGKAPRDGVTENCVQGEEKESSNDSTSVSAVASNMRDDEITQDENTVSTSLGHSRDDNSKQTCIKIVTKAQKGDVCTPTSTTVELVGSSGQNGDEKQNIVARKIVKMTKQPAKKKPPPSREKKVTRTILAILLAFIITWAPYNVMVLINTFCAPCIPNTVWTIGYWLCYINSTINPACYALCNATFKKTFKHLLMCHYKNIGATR

Histamine H1 receptor = Histamine H1 receptor (Rattus norvegicus, UniProt P31390)
Sequence of Histamine H1 receptor (P31390 whole entry): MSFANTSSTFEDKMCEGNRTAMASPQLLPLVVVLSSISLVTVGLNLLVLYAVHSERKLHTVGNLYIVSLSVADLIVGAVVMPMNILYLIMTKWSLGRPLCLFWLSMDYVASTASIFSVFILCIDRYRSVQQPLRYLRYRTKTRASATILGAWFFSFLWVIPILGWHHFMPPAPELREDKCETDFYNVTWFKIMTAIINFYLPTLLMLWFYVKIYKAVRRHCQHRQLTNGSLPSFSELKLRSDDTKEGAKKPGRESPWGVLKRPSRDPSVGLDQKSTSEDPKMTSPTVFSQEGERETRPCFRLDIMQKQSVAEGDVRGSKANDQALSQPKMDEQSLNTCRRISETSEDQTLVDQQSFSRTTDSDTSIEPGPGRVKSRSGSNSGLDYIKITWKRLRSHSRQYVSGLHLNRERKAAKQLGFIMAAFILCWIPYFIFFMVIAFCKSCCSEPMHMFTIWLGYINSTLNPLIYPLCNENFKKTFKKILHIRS

Ki [1] [µM]	Ki [2] [µM]	Ki (Histamine H1 receptor) [µM]	Compound
4.6	0.32	0.031	CN(C)CCCN1c2ccccc2CCc2ccccc21
6.1	–	> 10	CN1Cc2c(N)cccc2[C@H](c2ccccc2)C1 [(+/-)-2-Methyl-4-phenyl-1,2,3,4-tetrahydro-isoquinolin-8-ylamine]
9.2	0.6	–	CNCCCN1c2ccccc2CCc2ccccc21 [Desmethylimipramine]
> 10	> 10	6.4	CNCCC(Oc1ccccc1C)c1ccccc1 (configuration not stated) [Methyl-(3-phenyl-3-o-tolyloxy-propyl)-amine(tomoxetine)]

Compound	Ki [1] [µM]	Ki [2] [µM]	Ki (Histamine H1 receptor) [µM]
CN(C)C[C@@H]1C2CCC(CC2)[C@@H]1c1ccc(Cl)c(Cl)c1 [CAS_62373-97-1]	> 10	–	2
